Data on eight molecules can be found in patent publication US10143201B2, “Fungicidal compositions” (Syngenta Crop Protection LLC, priority 2007, dated 2018).

For one assay, the system named is Phakopsora pachyrhizi. In words: Action against Asian soybean rust, leaf disc test. In kind it is in vivo. To be noted: 14 days after inoculation. On the procedure:
Example B-1: Action Against Asian Soybean Rust (Phakopsora pachyrhizi)—Leaf Disc Test
Whole soybean plants (variety brand Williams82) are treated with the recited active ingredients 4 weeks after planting. 1 day after spraying leaf disks are cut from the first trifoliate leaf. Five repetitions at each rate are conducted. The leaf disks are inoculated with Phakopsora pachyrhizi (Asian soybean rust) one day after treatment. Evaluation of the leaf disks is conducted fourteen days after inoculation and the mean percent infestation of the five repetitions is calculated. Standard EC100 formulations are used. The rates of the active ingredients used are given in Table B1 as g active ingredient (a.i.)/ha.

For a further assay, the system named is Botrytis cinerea. In words: Fungicidal action against Botrytis cinerea (gray mould), microtiter growth inhibition. In kind it is cell-based. Particulars: alone. On the procedure: Example B2: Fungicidal Action Against Botrytis cinerea (Gray Mould)
(§1) Conidia of the fungus from cryogenic storage are directly mixed into nutrient broth (PDB potato dextrose broth). After placing a (DMSO) solution of the test compounds into a microtiter plate (96-well format) the nutrient broth containing the fungal spores is added. The test plates are incubated at 24° C. and the inhibition of growth is evaluated after 4 days. The expected fungicidal action is calculated according to the Colby method.

For another assay, the system named is Septoria tritici. In words: Fungicidal action against Septoria tritici (leaf blotch), microtiter growth inhibition. The assay is classed as cell-based. To be noted: for % activity: alone. On the procedure: Example B3: Fungicidal Action Against Septoria tritici (Leaf Blotch)
as §1

A further assay deals with Alternaria solani. Briefly: Fungicidal action against Alternaria solani (early blight tomato/potato), microtiter growth inhibition. The assay is classed as cell-based. To be noted: alone. The method, then: Example B4: Fungicidal Action Against Alternaria solani (Early Blight Tomato/Potato)
Conidia of the fungus from cryogenic storage are directly mixed into nutrient broth (PDB potato dextrose broth). After placing a (DMSO) solution of the test compounds into a microtiter plate (96-well format) the nutrient broth containing the fungal spores is added. The test plates are incubated at 24° C. and the inhibition of growth is evaluated after 3 days. The expected fungicidal action is calculated according to the Colby method.

Assay [1] has as its system Pseudocercosporella herpotrichoides (syn. Tapesia yallundae). Briefly: Fungicidal action against Pseudocercosporella herpotrichoides (eye spot of cereals), microtiter growth inhibition. In kind it is cell-based. Particulars: alone. On the procedure:
Example B5: Funicidal Action Against Pseudocercosporella herpotrichoides (Syn. Tapesia yallundae), Eye Spot of Cereals
as §1

For the next assay, the system named is Pyrenophora teres. In words: Fungicidal action against Pyrenophora teres (net blotch), microtiter growth inhibition. In kind it is cell-based. On the procedure:
Example B6: Fungicidal Action Against Pyrenophora teres (Net Blotch)
as §1

Another assay has as its system Gaeumannomyces graminis. In words: Fungicidal action against Gaeumannomyces graminis (take-all of cereals), microtiter growth inhibition. The assay is classed as cell-based. To be noted: for inhibition at 0.0039 ppm / inhibition at 0.0078 ppm / inhibition at 0.0313 ppm / inhibition at 0.0625 ppm: read-out: % activity; for inhibition at 0.25 ppm: 0.2500 ppm; for inhibition at 0.5 ppm: 0.5000 ppm. On the procedure:
Example B7: Fungicidal Action Against Gaeumannomyces graminis (Take-all of Cereals)
Mycelial fragments of the fungus from cryogenic storage are directly mixed into nutrient broth (PDB potato dextrose broth). After placing a (DMSO) solution of the test compounds into a microtiter plate (96-well format) the nutrient broth containing the fungal spores is added. The test plates are incubated at 24 C and the inhibition of growth is evaluated after 4 days.

In assay [2] the test system is Cercospora arachidicola (syn. Mycosphaerella arachidis). Briefly: Fungicidal action against Cercospora arachidicola (brown leaf spot of groundnut), microtiter growth inhibition. The assay is classed as cell-based. To be noted: for inhibition at 0.0039 ppm / inhibition at 0.0078 ppm: read-out: % activity; for inhibition at 0.125 ppm: 0.1250 ppm. On the procedure:
Example B8: Fungicidal Action Against Cercospora arachidicola (Syn. Mycosphaerella arachidis), Brown Leaf Spot of Groundnut (Peanut)
Conidia of the fungus from cryogenic storage are directly mixed into nutrient broth (PDB potato dextrose broth). After placing a (DMSO) solution of the test compounds into a microtiter plate (96-well format) the nutrient broth containing the fungal spores is added. The test plates are incubated at 24 C and the inhibition of growth is evaluated after 7 days.

Assay [3] concerns Monopraphella nivalis (syn. Microdochium nivale, Fusarium nivale). In words: Fungicidal action against Monopraphella nivalis (snow mould, foot rot of cereals), microtiter growth inhibition. The assay is classed as cell-based. To be noted: compound alone. On the procedure: Example B9: Fungicidal Action Against Monopraphella nivalis (Syn. Microdochium nivale, Fusarium nivale), Snow Mould, Foot Rot of Cereals
Conidia of the fungus from cryogenic storage are directly mixed into nutrient broth (PDB potato dextrose broth). After placing a (DMSO) solution of the test compounds into a microtiter plate (96-well format) the nutrient broth containing the fungal spores is added. The test plates are incubated at 24 C and the inhibition of growth is evaluated after 4 days.

The test system of assay [4] is Colletotrichum lagenarium (syn. Glomerella lagenarium). In words: Fungicidal action against Colletotrichum lagenarium (anthracnose of cucurbits), microtiter growth inhibition. The assay is classed as cell-based. Particulars: Colletotrichum orbiculare; compound alone, 0.1250 ppm. The method, then: Example B10: Fungicidal Action Against Colletotrichum lagenarium (Syn. Glomerella lagenarium), Anthracnose of Cucurbits Conidia of the fungus from cryogenic storage are directly mixed into nutrient broth (PDB potato dextrose broth). After placing a (DMSO) solution of the test compounds into a microtiter plate (96-well format) the nutrient broth containing the fungal spores is added. The test plates are incubated at 24 C and the inhibition of growth is evaluated after 3 days.

The mark [5] stands for this setting: Mycosphaerella arachidis, compound alone, 0.0313 ppm.
Where [6] appears, read: Gaeumannomyces graminis, compound alone, 0.0039 ppm.
Setting [7] is: Gaeumannomyces graminis, compound alone, 0.0078 ppm.
[8] abbreviates: Gaeumannomyces graminis, compound alone.
The mark [9] stands for this setting: Mycosphaerella arachidis, compound alone.
The mark [10] stands for this setting: Zymoseptoria tritici, read-out: % activity.
Setting [11] is: Pyrenophora teres, read-out: % activity.
[12] abbreviates: Gaeumannomyces graminis, compound alone, 0.0625 ppm.

Where “and” joins values, the source holds several entries; their conditions need not be identical. Equal values may be shown once. Read-outs that look alike come from different tables or passages of the source.

As for `Cn1cc(C(=O)Nc2cccc3c2C2CCC3C2=C(Cl)Cl)c(C(F)F)n1` (stereo not shown) [Compound A-1.1, 3-difluoromethyl-1-methyl-1H-pyrazole-4-carboxylic acid (9-dichloromethylidene-benzonorbornene-5-yl)amide], the “% Control of Phakopsora pachyrhizi” value in the assay with Phakopsora pachyrhizi (31.25 g a.i./ha) came to 36%; in the assay on Phakopsora pachyrhizi (62.5 g a.i./ha) it was 36%; in the assay on Phakopsora pachyrhizi (125 g a.i./ha), 82%; in the assay on Phakopsora pachyrhizi (250 g a.i./ha), 87%. Further, the “% activity” value in the assay with Botrytis cinerea (0.0156 ppm) is 0%; with Botrytis cinerea (0.0313 ppm), 0%; in the assay on Botrytis cinerea (0.0625 ppm), 20%; in the assay on Botrytis cinerea (0.1250 ppm), 20%; with Botrytis cinerea (0.5000 ppm) it was 50% and 70%; with Botrytis cinerea (1.0000 ppm) it was 90%. Besides, the “% activity” value in the assay with Septoria tritici (0.0625 ppm) is 20%; in the assay on Septoria tritici (0.1250 ppm) it was 50%; with Septoria tritici (0.2500 ppm), 70%; in the assay with Septoria tritici (0.5000 ppm), 90%; in the assay with Alternaria solani (0.0078 ppm), 0%; in the assay on Alternaria solani (0.0156 ppm) it was 20%. Further, the “% activity” value came to 20% with Alternaria solani (0.0313 ppm); 50% with Alternaria solani (0.0625 ppm); 50% in the assay with Alternaria solani (0.1250 ppm); 50% in the assay with Alternaria solani (0.2500 ppm); 0% in assay [1] (0.0039 ppm); 0% in assay [1] (0.0078 ppm). Further, the “% activity” value in [1] (0.0625 ppm) came out at 70%; in the assay with Pyrenophora teres (0.0078 ppm, alone) it was 0%; in the assay on Pyrenophora teres (0.0313 ppm, alone), 20%; in the assay with Pyrenophora teres (0.0625 ppm, alone) it was 20%; in the assay with Pyrenophora teres (0.1250 ppm, alone), 20%; with Pyrenophora teres (0.2500 ppm, alone), 50%. Further, the “% activity” value with Pyrenophora teres (compound alone, 0.0313 ppm) was 20%; in the assay on Pyrenophora teres (compound alone, 0.0625 ppm) it was 20%; with Pyrenophora teres (compound alone, 0.2500 ppm), 50%; in the assay on Pyrenophora teres (compound alone, 0.5000 ppm) it was 50% and 70%; in the assay with Pyrenophora teres (compound alone, 1.0000 ppm), 70%; in the assay with Pyrenophora teres (compound alone, 2.0000 ppm) it was 70%. Further, the “% activity” value in the assay on Gaeumannomyces graminis (compound alone, 0.0156 ppm) was 50% and 70%; in assay [2] (compound alone, 0.0039 ppm), 0%; in assay [2] (compound alone, 0.0078 ppm) it was 0%; in assay [2] (compound alone, 0.0156 ppm), 20%; in assay [2] (compound alone, 0.0313 ppm) it was 70%; in assay [3] (0.0313 ppm), 20%. The “% activity” value is reported as 50% in assay [3] (0.0625 ppm) and 90% in assay [3] (0.1250 ppm).

As for `Cn1cc(C(=O)Nc2cccc3c2C2CCC3C2=C(Br)Br)c(C(F)F)n1` (stereo not shown) [Compound A-1.3, 3-difluoromethyl-1-methyl-1H-pyrazole-4-carboxylic acid (9-dibromomethylidene-benzonorbornene-5-yl)amide], the “% Control of Phakopsora pachyrhizi” value is recorded as 36% in the assay on Phakopsora pachyrhizi (31.25 g a.i./ha), 36% in the assay on Phakopsora pachyrhizi (62.5 g a.i./ha), 54% with Phakopsora pachyrhizi (125 g a.i./ha) and 93% with Phakopsora pachyrhizi (250 g a.i./ha).

Turning to `Cn1cc(C(=O)Nc2ccc(F)cc2-c2ccc(Cl)c(Cl)c2)c(C(F)F)n1` [Compound B-5.11, 3-difluoromethyl-1-methyl-1H-pyrazole-4-carboxylic acid (3′,4′-dichloro-5-fluoro-1,1′-biphenyl-2-yl)-amide], the inhibition at 0.0039 ppm in [2] (Mycosphaerella arachidis, compound alone, 0.0039 ppm) amounted to 0%. Further, in assay [2] (Mycosphaerella arachidis, compound alone, 0.0078 ppm), the inhibition at 0.0078 ppm was 0%. This molecule registered an inhibition at 0.0156 ppm in assay [2] (Mycosphaerella arachidis, compound alone, 0.0156 ppm) of 20%. In addition, the inhibition at 0.0313 ppm in assay [2] (setting [5]) came to 70%; in assay [3] (Microdochium nivale, 0.0313 ppm), 0%. Also, in assay [3] (Microdochium nivale, 0.0625 ppm), the inhibition at 0.0625 ppm worked out at 0%. For the same molecule, the inhibition at 0.125 ppm in [3] (Microdochium nivale, 0.1250 ppm) came out at 0%. Besides, the inhibition at 0.25 ppm in assay [3] (Microdochium nivale, 0.2500 ppm) was 20%.

Turning to `O=C(NCCc1ncc(C(F)(F)F)cc1Cl)c1ccccc1C(F)(F)F` [Compound B-5.12, N-{2-[3-chloro-5-(trifluoromethyl)pyridin-2-yl]ethyl}-2-(trifluoromethyl)benzamid], the inhibition at 0.0039 ppm in the assay on Gaeumannomyces graminis (setting [6]) came to 0%. Moreover, in the assay on Gaeumannomyces graminis (setting [7]), the inhibition at 0.0078 ppm is 0%. For the same molecule, the inhibition at 0.0156 ppm in the assay on Gaeumannomyces graminis (Gaeumannomyces graminis, compound alone, 0.0156 ppm) came out at 0%. Besides, the inhibition at 0.0313 ppm amounted to 0% with Gaeumannomyces graminis (Gaeumannomyces graminis, compound alone, 0.0313 ppm) and 0% in assay [2] (setting [5]). The inhibition at 0.125 ppm amounted to 0% in the assay on Gaeumannomyces graminis (Gaeumannomyces graminis, compound alone, 0.1250 ppm) and 20% in assay [2] (setting [9]). Moreover, the inhibition at 0.25 ppm with Gaeumannomyces graminis (setting [8]) is 0%; in assay [2] (Mycosphaerella arachidis, compound alone, 0.2500 ppm) it was 20%. In the assay on Gaeumannomyces graminis (setting [8]), this molecule showed an inhibition at 0.5 ppm of 0%. This molecule also returned an inhibition at 1 ppm in the assay on Gaeumannomyces graminis (Gaeumannomyces graminis, compound alone, 1.0000 ppm) of 0%. This molecule showed an inhibition at 2 ppm in the assay on Gaeumannomyces graminis (Gaeumannomyces graminis, compound alone, 2.0000 ppm) of 0%. In assay [2] (setting [9]), this molecule yielded an inhibition at 0.0625 ppm of 0%.

Regarding `CC(C)C1CCC(Cc2ccc(Cl)cc2)C1(O)Cn1cncn1` (stereo not shown) [Ipconazole], in [4], the inhibition at 0.125 ppm worked out at 20%.

Consider `C#CCOc1ccc(CCNC(=O)C(OCC#C)c2ccc(Cl)cc2)cc1OC` (stereo not shown) [Mandipropamid, mandipropamid], for which, in the assay on Septoria tritici (setting [10]), the inhibition at 0.125 ppm amounted to 0%, the inhibition at 0.25 ppm came to 0% and the inhibition at 0.5 ppm came to 0%. Moreover, in the assay with Pyrenophora teres (setting [11]), the inhibition at 0.5 ppm came out at 0% and the inhibition at 1 ppm is 0%. Besides, in the assay on Gaeumannomyces graminis (Gaeumannomyces graminis), the inhibition at 0.0039 ppm worked out at 0%, the inhibition at 0.0078 ppm was 0%, the inhibition at 0.0313 ppm stood at 0% and the inhibition at 0.0625 ppm was 0%. In [2] (Mycosphaerella arachidis), the inhibition at 0.0039 ppm was determined as 0% and the inhibition at 0.0078 ppm came to 0%.

Consider `CCCC1COC(Cn2cncn2)(c2ccc(Cl)cc2Cl)O1` (stereo not shown) [Propiconazole], for which, in the assay with Pyrenophora teres (Pyrenophora teres, compound alone, 1.0000 ppm, read-out: % activity), the inhibition at 1 ppm stood at 20%. In the assay on Pyrenophora teres (Pyrenophora teres, compound alone, 2.0000 ppm), the inhibition at 2 ppm came to 50%. Further, the inhibition at 0.0039 ppm with Gaeumannomyces graminis (setting [6]) is 0%. Also, the inhibition at 0.0078 ppm in the assay on Gaeumannomyces graminis (setting [7]) stood at 0%. Further, the inhibition at 0.0625 ppm with Gaeumannomyces graminis (setting [12]) amounted to 0%. The molecule further had an inhibition at 0.0313 ppm in assay [2] (setting [5]) of 20%. In addition, in assay [2] (setting [9]), the inhibition at 0.0625 ppm amounted to 70% and the inhibition at 0.125 ppm was 90%.

In the case of `OC(Cc1ccccc1Cl)(Cn1nc[nH]c1=S)C1(Cl)CC1` (stereo not shown) [Prothioconazole], the inhibition at 0.0625 ppm turned out to be 50% in the assay with Gaeumannomyces graminis (setting [12]) and 70% in assay [2] (setting [9]). The inhibition at 0.25 ppm in the assay with Gaeumannomyces graminis (setting [8]) was found to be 90%. The molecule also yielded an inhibition at 0.5 ppm in the assay with Gaeumannomyces graminis (setting [8]) of 90%.
